The values that follow come from ChEMBL document CHEMBL1157278, “A new sesquiterpene as an antifouling substance from a palauan marine sponge, dysidea herbacea” (1999).

Assay [1] concerns Mytilus edulis. Kind of assay: Antifouling activity in Mytilus edulis galloprovincialis assessed as foot contraction at <10 ppm. The class given is functional, organism-based.
In assay [2] the test system is Mytilus edulis. Kind of assay: Antifouling activity in Mytilus edulis galloprovincialis assessed as foot contraction at 100 ppm. The class given is functional.

The source made the active and inactive calls. The rule behind the calls is not given here.

`C=C1[C@@H](C)C[C@H]2C[C@]1(C)CCC1=CC(=O)O[C@@]12O`: the result with Mytilus edulis [1] was inactive. Further, the Activity in the assay with Mytilus edulis [2] is reported as 100%.
